Assay results reported in patent publication US20260216110A1, “COMPOUND USEFUL AS THYROID HORMONE RECEPTOR ß-SELECTIVE THYROID HORMONE ANALOG” (NATIONAL UNIVERSITY CORPORATION TOKAI NATIONAL HIGHER …, priority 2022, published 2026).
“Also recorded” adds a separate entry of the source.

What was measured:
[1] = test system: lipid droplets in hepatocytes; assay: Oil Red O staining of liver sections, high-fat diet mice; assay type: in vivo, C57BL/6J mice; conditions: HFD mice, 1 μmol/kg-day i.p. for 3 weeks, compared to the vehicle
Description: Lipid droplets are organelles for storing neutral lipids, such as triglycerides and cholesterol esters. Excessive accumulation of lipid droplets in hepatocytes is characteristic of non-alcoholic fatty liver disease (NAFLD). […] Specifically, the procedure performed is described below.
(§1) Male 7-week-old C57BL/6J mice were individually housed in cages (Innocages, ORIENTAL GIKEN) and kept warm at 23° C. with a 12-hour light-dark cycle starting at 8:00 AM. After 1 week of acclimation, the animals were given either a normal diet (ND; 10 kcal % fat, D12450B, Research Diets) or a high-fat diet (HFD; 60 kcal % fat, D12492, Research Diets). […] The injection was given 6 hours after lights on. Food consumption and body weight were measured weekly. Food and water were provided to the animals ad libitum. After 3 weeks of daily injections, whole blood was collected under isoflurane anesthesia, and the heart and liver were harvested. The liver was frozen and stored at −80° C.
20 μm sections were prepared from the frozen liver tissues using a cryostat (CM3050 S, Leica). The sections were mounted on silane-coated glass slides, dried at room temperature, and stored at −80° C. until use. Before staining, the sections were fixed with 1% PFA/1×PBS, pH of 7.4 (Gibco), for 5 minutes, then immersed in 1×PBS for 5 minutes, distilled water for 5 minutes, and a 60% 2-propanol solution for 1 minute. The Oil Red O staining solution was prepared by mixing 0.36 g of Oil Red O (Sigma) with 120 mL of 2-propanol and 80 mL of distilled water, letting it stand at room temperature for 1 hour, filtering the solution, and then leaving it overnight at 37° C. The sections were immersed in the Oil Red O staining solution at 37° C. for 15 minutes, and then rinsed in 60% 2-propanol for 1 minute and in distilled water for 1 minute. Thereafter, the sections were counterstained with Meyer's hematoxylin. […] The area of red-stained lipid droplets was quantified using Image J (NIH), and the percentage of the stained area in the total image area was calculated. Three sections per mouse were analyzed.

Ldlr, Srebp1c = assay: Further testing: LDL uptake, Ldlr and Srebp1c expression; assay type: in vivo
[2] = Serum ALT level (hepatotoxicity); assay type: in vivo, C57BL/6J mice; conditions: compared to the vehicle
Description: (§2) Specifically, the procedure performed is described below.
The blood samples collected in Test Example 4 were left to stand at room temperature for 1 hour, and then centrifuged at 4° C., 800×g, for 15 minutes, followed by collecting the supernatant. The serum ALT levels were measured using an Alanine Aminotransferase (ALT or SGPT) Activity Colorimetric/Fluorometric Assay Kit (BioVision) according to the manufacturer's protocol.

[3] = Heart weight (cardiac hypertrophy); assay type: in vivo, C57BL/6J mice
Description: as §1
Left ventricular hypertrophy is often associated with hyperthyroidism caused by increased heart rate mediated by hTHRα. Therefore, hTHRβ-selective analogs are expected to avoid this adverse effect on the heart. To examine whether cardiac hypertrophy was induced, the weight of the heart collected in Test Example 4 was measured.

[4] = test system: left ventricular cardiomyocytes; assay: Transnuclear width of left ventricular cardiomyocytes; assay type: in vivo, C57BL/6J mice; conditions: T3; GC-1 high dose 1 μmol/kg BW/day; ZTA-261 dose not specified
Description: as §2
The cardiac tissues collected in Test Example 4 were fixed, dehydrated, and paraffin-infiltrated using an automatic fixation and encapsulation device (Sakura Finetek Japan). Paraffin blocks were prepared using a Tissue Tech TEC 6 (Sakura Finetek Japan), and 5 μm thick transverse sections were prepared using a microtome (Leica). The sections were deparaffinized, rehydrated, and then immersed in a Meyer's hematoxylin solution (FUJIFILM Wako Pure Chemical Industries, Ltd.) and in an eosin solution. Thereafter, the sections were dehydrated and mounted using Entellan new (Merck). The sections were observed under a microscope (BX43; Olympus) at 400× magnification, and digital images were captured using cellSens (Olympus). One hundred cells were randomly selected from the left ventricle of each mouse, and their transnuclear width was measured using Image J (NIH) according to a previously reported method.

[5] = Bone structure parameters (bone metabolism); assay type: in vivo; conditions: mice of Test Example 4
Description: The effect of the test compounds on bone metabolism was investigated. Specifically, bone structure parameters (bone volume: BV/TV, trabecular number: Tb.N, trabecular separation: Tb.Sp, trabecular thickness: Tb.Th, connectivity density: Conn.D) were measured using thin sections prepared from the bones of mice in Test Example 4.

THRα = target: T1, THRα (Homo sapiens, UniProt P10827); conditions: relative to T3; cited from earlier work
T1 sequence (P10827 1-410 isoform P10827-2): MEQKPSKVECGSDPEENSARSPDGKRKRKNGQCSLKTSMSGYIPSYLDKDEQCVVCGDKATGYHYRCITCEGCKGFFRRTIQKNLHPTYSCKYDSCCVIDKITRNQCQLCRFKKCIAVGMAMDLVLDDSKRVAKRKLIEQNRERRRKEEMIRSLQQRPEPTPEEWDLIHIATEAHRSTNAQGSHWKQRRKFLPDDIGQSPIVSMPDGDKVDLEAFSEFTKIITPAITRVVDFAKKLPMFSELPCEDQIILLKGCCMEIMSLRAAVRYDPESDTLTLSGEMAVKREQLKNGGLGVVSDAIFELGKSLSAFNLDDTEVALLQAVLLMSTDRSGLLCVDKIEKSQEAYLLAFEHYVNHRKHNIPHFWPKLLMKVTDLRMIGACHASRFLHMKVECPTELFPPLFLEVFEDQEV

full-length human THRα = target: T2, full-length human THRα (Homo sapiens, UniProt P10827); assay: Radioligand-displacement assay ([125I]-T3), THRα; conditions: ratio of the IC50 values THRα/THRβ
T2 sequence (P10827 1-410 isoform P10827-2): T1 sequence (P10827 1-410 isoform P10827-2)
Description: Specifically, the assessment was performed as described below by using full-length human THRα and THRβ synthesized by in vitro transcription-translation.
The reaction mixture was incubated overnight at 4° C. A nitrocellulose membrane (Optitran, 0.45 μm in pore size, Whatman) pre-blocked with E-400 buffer was placed in a dot-blot apparatus (Minifold I, GE Healthcare), and the reaction mixture was filtered through the membrane, followed by washing three times with 200 μL of E-400 buffer. […] Radioactive signals were scanned using a Typhoon FLA9000 (GE Healthcare) and quantified by using Image Quant TL software (GE Healthcare). The IC50 value of each competitor drug was calculated by fitting the dose response data to a one-site competition model using GraphPad Prism version 7.0 (GraphPad Software).

[6] = test system: ligand-binding domain of THRα or THRβ; assay: Luciferase reporter assay for THRβ selectivity in GloResponse 9XGAL4UAS-luc2P HEK293 cells; assay type: cell-based; conditions: EC50-based, THRα vs THRβ
Description: as §2
The cells used and cell culture were as follows. GloResponse 9XGAL4UAS-luc2P HEK293 cells (Promega) were stably transfected with pFN26A (BIND) (Promega) containing the coding region of the ligand-binding domain of THRα or THRβ. The cells were cultured in DMEM supplemented with 10% FBS, 200 μg/mL Hygromycin, and 750 μg/mL G418 in 90 mm cell culture dishes at 37° C. with 5% CO2. The cells were subcultured every 3 days and used in a luciferase reporter assay.
The cells were suspended in an assay medium (DMEM supplemented with 5% charcoal/dextran-treated FBS, 25 mM HEPES, and a 4 mM L-Alanyl-L-glutamine solution) and seeded at 2×10^4 cells/well in 96-well plates coated with poly-L-lysine. After incubation at 37° C. with 5% CO2 for 24 hours, each test compound was added at various concentrations. The following day, firefly luciferase luminescence was measured using a Dual-Glo Luciferase Assay System (Promega) with a microplate reader (SpectraMax i3, Molecular Devices). The luminescence of Renilla luciferase was used as an internal standard.

Structure (SMILES) | Oil Red O-positive area [1] | cellular uptake of LDL (Ldlr, Srebp1c) | expression of Ldlr (Ldlr, Srebp1c) | expression of Srebp1c (Ldlr, Srebp1c) | serum ALT levels ([2]; high dose 1 μmol/kg BW/day) | heart weight ([3]; high dose 1 μmol/kg BW/day) | width of cardiomyocytes (transnuclear width, left ventricle) [4] | bone structure parameters (BV/TV, Tb.N, Tb.Sp, Tb.Th, Conn.D) [5] | affinity for THRα lower than T3 (THRα) [fold] | affinity for THRα lower than affinity for THRβ (full-length human THRα) | THRβ selectivity [6] | serum ALT levels ([2]; low dose 0.1 μmol/kg BW/day) | heart weight ([3]; low dose 0.1 μmol/kg BW/day)
Cc1cc(OCC(=O)O)cc(C)c1Cc1ccc(O)c(C(C)C)c1 [GC-1] | significantly reduced | promoted | increased | decreased | significant increase | significantly increased | increased | significantly worsened | 10 | about 30 times | – | – | –
Cc1cc(OCC(=O)O)cc(C)c1Cc1ccc(O)c2ccccc12 [MY-53] | – | – | – | – | – | – | – | – | – | – | found to show THRβ selectivity | – | –
N[C@@H](Cc1cc(I)c(Oc2ccc(O)c(I)c2)c(I)c1)C(=O)O [T3, triiodothyronine] | significantly reduced | promoted | increased | decreased | – | significantly increased | increased | significantly worsened | – | – | – | – | –
O=C(O)COc1cc(C(F)(F)F)c(Cc2ccc(O)c3ccccc23)c(C(F)(F)F)c1 [ZTA-245] | – | – | – | – | – | – | – | – | – | – | found to show THRβ selectivity | – | –
O=C(O)Cc1cc(C(F)(F)F)c(Cc2ccc(O)c3ccccc23)c(C(F)(F)F)c1 [ZTA-261] | significantly reduced; also recorded: the most effective, reducing the Oil Red O-positive area to a level comparable to the ND-administered group | promoted | increased | decreased | did not show a significant increase | No such effect was observed | no significant increase | no significant changes | – | – | – | did not show a significant increase | No such effect was observed
